Patent US20120190613A1, “ECHINOCANDIN DERIVATIVES” (priority 2009, published 2012)
Marks after values point to notes of the source that are not given here.

Test system: C. albicans R303
Assay: Mouse candidiasis infection model, C. albicans density in kidneys
Type: in vivo, female CD-1 mice
Settings: for Difference from 24-hr control / Mean log10 CFU/kidneys (±SD) / Difference from 24-h control / Mean log10 CFU/kidneys (±SEM): kidneys at 24 hr
Procedure: The objective of these studies was to evaluate the efficacy of test compounds in the mouse candidiasis infection model.
The strain, C. albicans R303 was transferred from frozen storage onto Sabauroud dextrose agar (SDA) plates and grown for ˜24 hr at 35° C. The inoculum was prepared by transferring colonies from the plate to phosphate buffered saline (PBS) and the concentration adjusted to 10^6 CFU/mL with the aid of a spectrophotometer. The stock was diluted 1:9 to prepare the inoculum. Prior to each run the concentration was verified using the dilution plate count method.
The female CD-1 mice used in this study were obtained from Charles River Laboratories, Portage, MI. The animals were approximately seven-weeks-old at the start of the study and weighed about 16-26 g.
In one approach, mice were made neutropenic with IP injections of cyclophosphamide (150 mg/kg in 10 mL/kg) at 4 and 1 day before inoculation. Each animal was inoculated with the appropriate concentration by injecting 0.1 mL of inoculum into a tail vein. The test compounds were administered IP at 2 hr after infection.
The kidneys were collected from four mice in control group 1 (untreated) at 2 hr after infection, and from the remaining mice in the study at 24 hr after infection. Kidneys were removed aseptically from each mouse and were combined in a sterile tube. An aliquot (2 mL) of sterile PBS was added to each tube and the contents homogenized with a tissue homogenizer (Polytron 3100). Serial dilutions of the tissue homogenates were conducted and 0.1 mL aliquots were spread on SDA plates and the plates incubated at 35° C. overnight. The CFU/kidneys were determined from colony counts. Data were analyzed using one-way ANOVA with the Tukey-Kramer Multiple Comparisons Test (GraphPad InStat version 3.06, GraphPad Software, San Diego, Calif.).
Treatments were administered at 2 hr after infection with 2.1×10^5 CFU/mL of the organism. Data are the means of four mice.
Treatments were administered at 2 hr after infection with 6.4×10^5 CFU/mL of the organism. Data are the means of four mice.
Treatments were administered at 2 hr after infection with 3.8×10^5 CFU/mL of the organism. Data are the means of four mice.
Treatments were administered at 2 hr after infection with 3.8×10^5 CFU/rnL of the organism. Data are the means of four mice.

[1] = Second run, 5 mg/kg IP 2 hr after infection
[2] = Fourth run, 0.5 mg/kg IP 2 hr after infection
[3] = Fourth run, 1.5 mg/kg IP 2 hr after infection
[4] = Fourth run, 4.5 mg/kg IP 2 hr after infection
[5] = Third run, 0.5 mg/kg IP 2 hr after infection
[6] = Third run, 1.5 mg/kg IP 2 hr after infection
[7] = Third run, 4.5 mg/kg IP 2 hr after infection

SMILES: CCC(C)CC(C)CCCCCCCCC(=O)NC1CC(O)C(NCCNC(=O)OCCOCCOCCOC)NC(=O)C2C(O)CCN2C(=O)C(C(O)CCN)NC(=O)C(C(O)C(O)c2ccc(O)cc2)NC(=O)C2CC(O)CN2C(=O)C(C(C)O)NC1=O (stereo not drawn) [Compound 12]
- Difference from 24-hr control [1]: −0.78 ns log10 CFU/kidneys
- Mean log10 CFU/kidneys (±SD) [1]: 4.42 ± 0.14 log10 CFU/kidneys

SMILES: CCC(C)CC(C)CCCCCCCCC(=O)NC1CC(O)C(NCCNCCOC)NC(=O)C2C(O)CCN2C(=O)C(C(O)CCN)NC(=O)C(C(O)C(O)c2ccc(O)cc2)NC(=O)C2CC(O)CN2C(=O)C(C(C)O)NC1=O (stereo not drawn) [Compound 13]
- Difference from 24-hr control [1]: −4.55*** log10 CFU/kidneys
- Mean log10 CFU/kidneys (±SD) [1]: 0.65 ± 0.75 log10 CFU/kidneys

SMILES: CCC(C)CC(C)CCCCCCCCC(=O)NC1CC(O)C(NCCN)NC(=O)C2C(O)CCN2C(=O)C(C(O)CCNC(=O)OCCOC)NC(=O)C(C(O)C(O)c2ccc(O)cc2)NC(=O)C2CC(O)CN2C(=O)C(C(C)O)NC1=O (stereo not drawn) [Compound 14]
- Difference from 24-hr control [1]: −1.13 ns log10 CFU/kidneys
- Mean log10 CFU/kidneys (±SD) [1]: 4.07 ± 0.17 log10 CFU/kidneys

SMILES: CCC(C)CC(C)CCCCCCCCC(=O)NC1CC(O)C(NCCN)NC(=O)C2C(O)CCN2C(=O)C(C(O)CCNC(=O)OCCOCCOCCOC)NC(=O)C(C(O)C(O)c2ccc(O)cc2)NC(=O)C2CC(O)CN2C(=O)C(C(C)O)NC1=O (stereo not drawn) [Compound 15]
- Difference from 24-hr control [1]: −0.45 ns log10 CFU/kidneys
- Mean log10 CFU/kidneys (±SD) [1]: 4.75 ± 0.20 log10 CFU/kidneys

SMILES: CCC(C)CC(C)CCCCCCCCC(=O)NC1CC(O)C(NCCOCCOCCOCCOC)NC(=O)C2C(O)CCN2C(=O)C(C(O)CCN)NC(=O)C(C(O)C(O)c2ccc(O)cc2)NC(=O)C2CC(O)CN2C(=O)C(C(C)O)NC1=O (stereo not drawn) [Compound 16]
- Difference from 24-h control [2]: −0.16 ns log10 CFU/kidneys
- Mean log10 CFU/kidneys (±SEM) [2]: 5.05 ± 0.12 log10 CFU/kidneys
- Difference from 24-h control [3]: −0.04 ns log10 CFU/kidneys
- Mean log10 CFU/kidneys (±SEM) [3]: 5.16 ± 0.03 log10 CFU/kidneys
- Difference from 24-h control [4]: −0.42 ns log10 CFU/kidneys
- Mean log10 CFU/kidneys (±SEM) [4]: 4.78 ± 0.18 log10 CFU/kidneys
- Effect on density of C. albicans in the kidneys (Fourth run, all dose levels (0.5, 1.5, 4.5 mg/kg)): ineffective

SMILES: CCC(C)CC(C)CCCCCCCCC(=O)NC1CC(O)C(NCCOC)NC(=O)C2C(O)CCN2C(=O)C(C(O)CCN)NC(=O)C(C(O)C(O)c2ccc(O)cc2)NC(=O)C2CC(O)CN2C(=O)C(C(C)O)NC1=O (stereo not drawn) [Compound 17]
- Effect on density of C. albicans in the kidneys (Fourth run, 0.5 mg/kg): not
- Difference from 24-h control [2]: −0.87 ns log10 CFU/kidneys
- Mean log10 CFU/kidneys (±SEM) [2]: 4.33 ± 0.14 log10 CFU/kidneys
- Difference from 24-h control [3]: −2.09*** log10 CFU/kidneys
- Mean log10 CFU/kidneys (±SEM) [3]: 3.11 ± 0.14 log10 CFU/kidneys
- Difference from 24-h control [4]: −4.25*** log10 CFU/kidneys
- Mean log10 CFU/kidneys (±SEM) [4]: 0.95 ± 0.55 log10 CFU/kidneys
- Effect on density of C. albicans in the kidneys (Fourth run, 4.5 and 1.5 mg/kg): significantly reduced the density

SMILES: CCCCCOc1ccc(-c2ccc(-c3ccc(C(=O)NC4CC(O)C(OCCOC)NC(=O)C5C(O)C(C)CN5C(=O)C(C(C)O)NC(=O)C(C(O)C(O)c5ccc(O)cc5)NC(=O)C5CC(O)CN5C(=O)C(C(C)O)NC4=O)cc3)cc2)cc1 (stereo not drawn) [Compound 18]
- Difference from 24-hr control [1]: −3.44*** log10 CFU/kidneys
- Mean log10 CFU/kidneys (±SD) [1]: 1.76 ± 0.44 log10 CFU/kidneys

SMILES: CCCCCOc1ccc(-c2ccc(-c3ccc(C(=O)NC4CC(O)C(OCCOCCOC)NC(=O)C5C(O)C(C)CN5C(=O)C(C(C)O)NC(=O)C(C(O)C(O)c5ccc(O)cc5)NC(=O)C5CC(O)CN5C(=O)C(C(C)O)NC4=O)cc3)cc2)cc1 (stereo not drawn) [Compound 19]
- Difference from 24-hr control [1]: −3.49*** log10 CFU/kidneys
- Mean log10 CFU/kidneys (±SD) [1]: 1.71 ± 0.35 log10 CFU/kidneys
- Difference from 24-hr control [5]: −0.03 ns log10 CFU/kidneys
- Mean log10 CFU/kidneys (±SEM) [5]: 4.84 ± 0.26 log10 CFU/kidneys
- Difference from 24-hr control [6]: −2.06*** log10 CFU/kidneys
- Mean log10 CFU/kidneys (±SEM) [6]: 2.82 ± 0.10 log10 CFU/kidneys
- Difference from 24-hr control [7]: −3.82*** log10 CFU/kidneys
- Mean log10 CFU/kidneys (±SEM) [7]: 1.05 ± 0.36 log10 CFU/kidneys
